The values that follow come from patent US12065438B2, “Substituted tricyclic compounds as indoleamine 2,3-dioxygenase inhibitors” (Merck Sharp & Dohme LLC, priority 2019, dated 2024).

IDO1, sequence (P14902 whole entry): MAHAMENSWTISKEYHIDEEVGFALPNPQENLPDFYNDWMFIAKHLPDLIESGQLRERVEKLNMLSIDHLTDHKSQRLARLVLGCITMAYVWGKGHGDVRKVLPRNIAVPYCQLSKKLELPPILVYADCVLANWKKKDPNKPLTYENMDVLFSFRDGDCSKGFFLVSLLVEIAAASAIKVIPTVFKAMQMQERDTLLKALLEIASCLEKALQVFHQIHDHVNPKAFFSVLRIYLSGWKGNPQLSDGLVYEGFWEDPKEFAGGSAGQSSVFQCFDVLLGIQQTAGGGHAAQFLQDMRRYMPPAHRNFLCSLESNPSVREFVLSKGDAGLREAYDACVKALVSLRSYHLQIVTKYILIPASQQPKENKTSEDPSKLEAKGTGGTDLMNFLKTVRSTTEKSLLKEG

The assay has as its target IDO1 (Homo sapiens, UniProt P14902). Put plainly: IDO1 Cellular Assay in HeLa Cells Stimulated with IFNγ. Set-up: endogenous in cells; host or cells: HeLa cells stimulated with IFNγ. The following applies: HeLa cells stimulated with IFNγ 100 ng/mL, 300 uM L-tryptophan, about 48 hours, fluorescence readout; read-out: IDO1 HELA Cell Assay, IC50. The class given is cell-based. The method, then:
Biological Assays IDO1 Cellular Assay in HeLa Cells Stimulated with IFNγ HeLa cells were cultured in complete HeLa culture medium (90% EMEM, 10% heat-inactivated fetal bovine serum) and expanded to about 1×10^9 cells. The cells were then collected and frozen down at 1×10^7 cells/vial in 1 mL frozen medium (90% complete HeLa culture medium, 10% DMSO). Compounds to be tested were serially diluted in ten 3-fold steps in DMSO starting from 10 mM DMSO stocks in Echo low volume plate(s). Compound dilutions or DMSO alone were then dispensed from the dilution plate(s) into Greiner black 384-well assay plate(s) (catalog #781086, 50 nL/well) using an Echo 550 acoustic liquid handler (Labcyte). Frozen HeLa cells were thawed and transferred into HeLa assay medium (99% complete HeLa culture medium, 1% Pen/Strep) with 20 mL medium/vial of cells. The cells were spun down at 250 g in a table top centrifuge for 5 min and suspended in same volume of HeLa assay medium. The cells were then counted and adjusted to a density of 2×10^5 cells/mL in HeLa assay medium. Sterile L-tryptophan were added to the cells with final concentration of 300 uM L-tryptophan. A small aliquot (2 mL/plate) of HeLa cells were set aside and were not treated with IFNγ, to serve as the Max-E control. The rest of HeLa cells were added with sterile IFNγ (Cat #285-IF, R & D systems) with a final concentration of 100 ng/mL. HeLa cells with and without IFNγ were dispensed to the respective wells of 384-well assay plates containing the compounds. The plates were incubated for about 48 hours at a 37° C., 5% CO2 incubator. Afterwards, 12 μL of 0.5 M methyl isonipecotate in dimethyl sulfoxide were added into each well and the plates were sealed and incubated at 37° C. without CO2 overnight. The plates were centrifuged for 1 min at 200×g. The resulting fluorescence was measured in a Spectramax plate reader (Molecular Devices) with a 400 nm excitation filter and a 510 nm emission filter. The fluorescence intensity of each well was corrected for the background observed in wells with non-IFNγ-treated cells and was expressed as a fraction of the intensity observed in wells of IFNγ-treated cells and DMSO only. Potencies were calculated by […] least squares fit to the four parameter logistic IC50 equation.
Consider `Cc1nccc(N2C[C@H]3C[C@H]3c3nc([C@@]4(NC(=O)c5ccc(F)cc5)C[C@@H]4C)ccc32)n1` [Example 45, 4-fluoro-N-((1R,2S)-2-methyl-1-((6aS,7aR)-5-(2-methyl-pyrimidin-4-yl)-6,6a,7,7a-tetra-hydro-5H-cyclopropa[c][1,5]-naphthyridin-2-yl)cyclopropyl)-benzamide], for which the IC50 (in general, the concentration at which inhibition is half-maximal) was 3.39 nM. As for `O=C(NC1(c2ccc3c(n2)C2CC2CN3)CC1)c1ccc(F)cc1` (stereo not shown) [Example 11, 4-fluoro-N-(1-(6,6a,7,7a-tetrahydro-5H-cyclopropa[c][1,5]naphthyridin-2-yl)cyclopropyl)benzamide], the figure is 2300 nM; as for `Cc1nccc(N2C[C@@H]3C[C@@H]3c3nc([C@]4(NC(=O)c5ccc(F)cc5)C[C@@H]4C)ccc32)n1` [Example 42, 4-fluoro-N-((1S,2S)-2-methyl-1-((6aR,7aS)-5-(2-methyl-pyrimidin-4-yl)-6,6a,7,7a-tetra-hydro-5H-cyclopropa[c][1,5]-naphthyridin-2-yl)cyclopropyl)-benzamide], 3.17 nM; as for `CC(C)(NC(=O)c1ccc(F)cc1)c1ccc2c(n1)C1CC1CN2` (stereo not shown) [Example 54, 4-fluoro-N-(2-(6,6a,7,7a-tetra-hydro-5H-cyclopropa[c][1,5]-naphthyridin-2-yl)propan-2-yl)-benzamide], 4900 nM. `O=C(NC1(c2ccc3c(n2)C2CC(C2)N3C(=O)OCc2ccccc2)CC1)c1ccc(F)cc1` [Example 49, benzyl 6-(1-(4-fluorobenzamido)cyclopropyl)-3,4-dihydro-2,4-methano-1,5-naphthyridine-1(2H)-carboxylate]: the IC50 amounted to 20.4 nM. On to “4-fluoro-N-(2-((6aS,7aR)-5-(2-methylpyrimidin-4-yl)-6,6a,7,7a-tetrahydro-5H-cyclopropa[c][1,5]naphthyridin-2-yl)propan-2-yl)benzamide [Example 31]”, for which the IC50 was 80.6 nM. As for `O=C(NC1(c2ccc3c(n2)[C@H]2C[C@H]2CN3C(=O)OC2CCOCC2)CC1)c1ccc(F)cc1` [Example 22, tetrahydro-2H-pyran-4-yl (6aR,7aS)-2-(1-(4-fluorobenzamido)cyclo-propyl)-6,6a,7,7a-tetra-hydro-5H-cyclopropa[c]-[1,5]naphthyridine-5-carboxylate], the figure is 61.6 nM; as for `CC(C)(C)OC(=O)N1CC2CC2c2nc(C3(NC(=O)c4ccc(F)cc4)CC3)ccc21` (stereo not shown) [Example 10, tert-butyl 2-(1-(4-fluorobenzamido)cyclopropyl)-6,6a,7,7a-tetrahydro-5H-cyclopropa[c][1,5]naphthyridine-5-carboxylate], 96.7 nM; as for `CC(NC(=O)c1ccc(F)cc1)c1ccc2c(n1)C1CC1CN2C(=O)OC(C)(C)C` (stereo not shown) [Example 24, tert-butyl 2-(1-(4-fluorobenzamido)ethyl)-6,6a,7,7a-tetrahydro-5H-cyclopropa[c][1,5]naphthyridine-5-carboxylate], 20.9 nM. In the case of `Cc1nccc(N2C[C@H]3C[C@H]3c3nc(C4(NC(=O)c5ccc(F)cc5)CC4)ccc32)n1` (stereo in doubt) [Example 13, 4-fluoro-N-(1-(5-(2-methylpyrimidin-4-yl)-6,6a,7,7a-tetrahydro-5H-cyclopropa[c][1,5]naphthyridin-2-yl)cyclopropyl)benzamide], the IC50 stood at 1.07 nM.

Take `Cc1nccc(N2C[C@H]3C[C@H]3c3nc([C@@]4(NC(=O)c5ccc(F)cc5)C[C@H]4C)ccc32)n1` [Example 43, 4-fluoro-N-((1R,2R)-2-methyl-1-((6aS,7aR)-5-(2-methyl-pyrimidin-4-yl)-6,6a,7,7a-tetra-hydro-5H-cyclopropa[c][1,5]-naphthyridin-2-yl)cyclopropyl)-benzamide]: the half-maximal inhibitory concentration (IC50) turned out to be 3.27 nM. As for `Cc1nccc(N2c3ccc(C4(NC(=O)c5ccc(F)cc5)CC4)cc3CC3CCC32)n1` (stereo not shown) [Example 5, 4-fluoro-N-(1-(3-(2-methylpyrimidin-4-yl)-1,2,2a,3,8,8a-hexahydrocyclobuta[b]quinolin-6-yl)cyclopropyl)benzamide], the figure is 4.71 nM. As for `CC(C)(C)OC(=O)N1CC2CC2c2nc(C(C)(C)NC(=O)c3ccc(F)cc3)ccc21` (stereo not shown) [Example 55, tert-butyl 2-(2-(4-fluorobenz-amido)propan-2-yl)-6,6a,7,7a-tetrahydro-5H-cyclopropa[c]-[1,5]naphthyridine-5-carboxylate], the figure is 16.6 nM; as for `Cc1nccc(N2c3ccc(C4(NC(=O)c5ccc(F)cc5)CC4)cc3C3CC32)n1` (single isomer, unassigned) [Example 8, 4-fluoro-N-(1-(2-(2-methylpyrimidin-4-yl)-1,1a,2,6b-tetrahydrocyclopropa[b]indol-5-yl)cyclopropyl)benzamide], 2.91 nM; as for `Cc1nccc(N2c3ccc(C4(NC(=O)c5ccc(F)cc5)CC4)nc3C3CC2C3)n1` [Example 51, 4-fluoro-N-(1-(1-(2-methylpyrimidin-4-yl)-1,2,3,4-tetrahydro-2,4-methano-1,5-naphthyridin-6-yl)cyclopropyl)benzamide], 8.08 nM. For `O=C(NC1(c2ccc3c(n2)C2CC(C2)N3C(=O)OC2CC2)CC1)c1ccc(F)cc1` [Example 50, cyclopropyl 6-(1-(4-fluorobenzamido)cyclopropyl)-3,4-dihydro-2,4-methano-1,5-naphthyridine-1(2H)-carboxylate] the value was 5.76 nM; for `C[C@@H](NC(=O)c1ccc(F)cc1)c1ccc2c(n1)[C@H]1C[C@H]1CN2C(=O)OC1CC1` [Example 28, cyclopropyl (6aR,7aS)-2-((R)-1-(4-fluorobenzamido)-ethyl)-6,6a,7,7a-tetrahydro-5H-cyclopropa[c][1,5]-naphthyridine-5-carboxylate], 29.3 nM; for `CC(C)(C)OC(=O)N1C[C@H]2C[C@H]2c2nc(C3(NC(=O)c4ccc(F)cc4)CC3)ccc21` [Example 53, tert-butyl (6aS,7aR)-2-(1-(4-fluorobenzamido)cyclopropyl)-6,6a,7,7a-tetrahydro-5H-cyclo-propa[c][1,5]naphthyridine-5-carboxylate], 4.62 nM. For `COC(=O)c1nccc(N2CC3CC3c3nc(C4(NC(=O)c5ccc(F)cc5)CC4)ccc32)n1` (stereo not shown) [Example 17, methyl 4-(2-(1-(4-fluorobenzamido)cyclopropyl)-6,6a,7,7a-tetrahydro-5H-cyclopropa[c][1,5]naphthyridin-5-yl)pyrimidine-2-carboxylate], the IC50 is 9.02 nM.

For `Cc1nccc(N2C[C@@H]3C[C@@H]3c3cc(C4(NC(=O)c5ccc(F)cc5)CC4)ccc32)n1` (single isomer, unassigned) [Example 2], the IC50 amounted to 1.5 nM.

As for `Cc1nccc(N2C[C@@H]3C[C@@H]3c3nc(C4(NC(=O)c5ccc(F)cc5)CC4)ccc32)n1` (stereo in doubt) [Example 12, 4-fluoro-N-(1-(5-(2-methylpyrimidin-4-yl)-6,6a,7,7a-tetrahydro-5H-cyclopropa[c][1,5]naphthyridin-2-yl)cyclopropyl)benzamide], the IC50 stood at 1.91 nM. For `Cc1nccc(N2c3ccc(C4(NC(=O)c5ccc(F)cc5)CC4)nc3C3CC2C3C)n1` (stereo not shown) [Example 48, 4-fluoro-N-(1-(3-methyl-1-(2-methylpyrimidin-4-yl)-1,2,3,4-tetrahydro-2,4-methano-1,5-naphthyridin-6-yl)cyclopropyl)benzamide] the value was 76.3 nM. Consider `CC(C)(C)OC(=O)N1C[C@@H]2C[C@@H]2c2nc(C3(NC(=O)c4ccc(F)cc4)CC3)ccc21` [Example 52, tert-butyl (6aR,7aS)-2-(1-(4-fluorobenzamido)cyclopropyl)-6,6a,7,7a-tetrahydro-5H-cyclo-propa[c][1,5]naphthyridine-5-carboxylate], for which the IC50 is 96.6 nM. For the compound `C[C@H](NC(=O)c1ccc(F)cc1)c1ccc2c(n1)[C@H]1C[C@H]1CN2C(=O)OC1CC1` [Example 25, cyclopropyl (6aR,7aS)-2-((S)-1-(4-fluorobenzamido)-ethyl)-6,6a,7,7a-tetrahydro-5H-cyclopropa[c][1,5]-naphthyridine-5-carboxylate], the IC50 turned out to be 15.4 nM. As for `Cc1nccc(N2c3ccc(C4(NC(=O)c5ccc(F)cc5)CC4)cc3C3CC32)n1` (single isomer, unassigned) [Example 9, 4-fluoro-N-(1-(2-(2-methylpyrimidin-4-yl)-1,1a,2,6b-tetrahydrocyclopropa[b]indol-5-yl)cyclopropyl)benzamide], the figure is 8.21 nM.
